Source: patent publication US20230181522A1, “SOLID AND LIQUISOLID FORMULATIONS OF CORALLOPYRONIN A” (RHEINISCHE FRIEDRICH-WILHELMS-UNIVERSITÄT BONN, priority 2020, published 2023)

Assays:
[1] = Biphasic dissolution test (BiPHa+); assay type: physicochemical; settings: organic phase 1-decanol
From the text: To simulate the gastrointestinal properties to obtain in vivo predictive results, the pH-profile, bile salt concentration and gastrointestinal passage time were adjusted in the aqueous phase to mimic human gut conditions. […] An organic phase of 1-decanol above the aqueous phase imitated the fraction absorbed from the gut. As a test model, the profile of a person without prior food intake was chosen. Therefore, FaSSIF-V2 medium, which represents the bile salts concentration of a fasted human was used. […] To generate an in-situ biorelevant aqueous medium for the fasted state, biorelevant surfactants, namely sodium-taurocholate (3 mM) and lecithin (0.2 mM), were added.
Prior to the start of the experiments, both phases, 1-decanol and the acidic aqueous phase, were saturated with each other.
After 30 min FaSSIF-V2 concentrate (sodium-taurocholate and lecithin) was added simultaneously to the addition of citrate-phosphate buffer (tri-potassium phosphate and potassium citrate) resulting in a first pH-shift from pH 1 to pH 5.5, simulating the duodenum. […] The adjusted buffers were titrated by 0.1 M NaOH and 0.1 M HCl (pH 5.5-6.8). The whole dissolution took 4.5 hours.

[2] = Pharmacokinetic analysis in vivo in BALB/c mice; design: species or system BALB/c female mice; settings: PO, Example 13, compared to IV set to 100%
Experimental: Pharmacokinetic analysis was performed in vivo in fed BALB/c female mice (n=4) (Study DZIF11). The solid formulation was suspended right before administration in PBS (phosphate buffered saline; pH=7.4) and was administered via gavage (36 mg/kg CorA, 10 mL/kg). Blood samples from the vena facialis were collected after 5, 10, 15, 30, 180, and 480 min. The samples were centrifuges for 10 min at 4° C. and 15000 g. The generated plasma was mixed in a ration of 1:3 with ice-cold acetonitrile (Bernd Kraft GmbH, Duisburg). The mixture was vortexed for 10 sec and centrifuged for 25 min at 4° C. and 11600 g. […] For the gradient method starting from 70% A/30% B to 20% A/80% B stepwise within 30 min, the mobile phases A (acetonitrile/water (Bernd Kraft GmbH, Duisburg) 5/95 with 5 mM ammonium acetate (Merck KGaA, Darmstadt) and 40 μL acetic acid (Sigma-Aldrich Chemie GmbH, Steinheim) per Liter) and B (acetonitrile/water 95/5 with 5 mM ammonium acetate and 40 μL acetic acid per Liter) enabled to quantitate corallopyronin A precisely at 300 nm at a flow rate of 0.3 mL/min and a column temperature of 30° C. The samples were quantitated via external reference standard. The content of the corallopyronin A reference material was analyzed by ^1H-NMR.
Plasma concentration-time profiles were generated and pharmacokinetic parameters calculated. […]

[3] = Stability analysis (storage, CorA content by HPLC-DAD); assay type: physicochemical
Experimental: The stability of the spray dried amorphous formulation of corallopyronin A embedded in polyvinylpyrrolidone was analyzed after storing samples in drying cabinets at 25° C./60% relative humidity (RH) and under accelerated conditions at 40° C./75% RH for 7, 14, 28 days and 3 months. The samples were stored in closed twist-off glass vials under nitrogen and in the presence of silica desiccant. The content was analyzed by High-Performance Liquid Chromatography with Diode-Array Detection (HPLC-DAD). The samples were, therefore, dissolved in acetonitrile (Bernd Kraft GmbH, Duisburg). The HPLC measurements were performed on a Waters Alliance e2695 separation module connected to a waters 2998 PDA detector. A waters XBridge® Shield RP18, 3.5 μm, 2.1×100 mm, 130 A column was used. For the gradient method starting from 70% A/30% B to 20% A/80% B stepwise within 30 min, the mobile phases A (acetonitrile/water (Bernd Kraft GmbH, Duisburg) 5/95 with 5 mM ammonium acetate (Merck KGaA, Darmstadt) and 40 μL acetic acid (Sigma-Aldrich Chemie GmbH, Steinheim) per Liter) and B (acetonitrile/water 95/5 with 5 mM ammonium acetate and 40 μL acetic acid per liter) enabled to quantitate corallopyronin A precisely at 300 nm at a flow rate of 0.3 mL/min and a column temperature of 30° C. The samples were quantitated via external reference standard. The content of the corallopyronin A reference material was analyzed by ^1H-NMR. The following table 2 summarizes the results of the stability analysis.

[4] = Solubility of corallopyronin A in ethanol; assay type: physicochemical

Q: Which predicted absorption ([1]; FaSSIF-V2 fasted human, pH 1 to 5.5 to 6.8, 4.5 hours, about 10 mg CorA) does the source give for “methyl N-[(E)-5-[6-hydroxy-5-[(2E,4E,9Z,13E)-8-hydroxy-2,5,9-trimethylpentadeca-2,4,9,13-tetraenoyl]-4-oxopyran-2-yl]hex-1-enyl]carbamate [CorA]” here?
A: 7.7%

Q: What about the “Maximum Partitioned Drug in the Organic Phase (%)” value ([1]; fasted human gut conditions, 4.5 h) of the same substance?
A: 8%

Q: What about the “Absolute Bioavailability” value [2] of the same substance?
A: 11%

Q: What about the “CorA Content” value ([3]; 3 months, 25° C., 60% RH, listed as Corallopyronin A) of the same substance?
A: 39%

Q: And the “CorA Content” value ([3]; 3 months, 25° C., 60% RH, listed as corallopyronin A)?
A: below 40%

Q: And the “CorA Content” value ([3]; 3 months, 40° C., 75% RH, listed as Corallopyronin A)?
A: 6%

Q: What about the “CorA Content” value ([3]; 3 months, 40° C., 75% RH, listed as corallopyronin A) of the same substance?
A: below 10%

Q: And the “CorA Content” value ([3]; 7 days, 25° C., 60% RH, listed as Corallopyronin A)?
A: 85%

Q: What about the “CorA Content” value ([3]; 7 days, 25° C., 60% RH, listed as corallopyronin A) of the same substance?
A: below 90%

Q: What about the “CorA Content” value ([3]; 7 days, 40° C., 75% RH, listed as Corallopyronin A) of the same substance?
A: 47%

Q: And the “CorA Content” value ([3]; 7 days, 40° C., 75% RH, listed as corallopyronin A)?
A: below 50%

Q: What about the “CorA Content” value ([3]; 14 days, 25° C., 60% RH) of the same substance?
A: 76%

Q: And the “CorA Content” value ([3]; 14 days, 40° C., 75% RH)?
A: 31%

Q: What about the “CorA Content” value ([3]; 28 days, 25° C., 60% RH) of the same substance?
A: 63%

Q: And the “CorA Content” value ([3]; 28 days, 40° C., 75% RH)?
A: 17%

Q: What about the “CorA Content” value ([3]; storage duration 0) of the same substance?
A: 99%

Q: What about the “amount that can be dissolved in ethanol” value [4] of the same substance?
A: 100 mg/mL
